These results are taken from article PMC5654082 (Malaria Journal, 2017).

Molecules are shown by their SMILES. Like-named read-outs stand apart in the source and are kept apart here. Marks after values point to notes of the source that are not given here.

Data set [1] relates to OCT1. Details: method as in PMID 18788725. The settings on record: 100 µM; ASP as substrate; cited from earlier work.
In data set [2] the test system is OCT2. Also on record: method as in PMID 21599003. The settings on record: 20 µM; ASP as substrate; cited from earlier work.
For data set [3] the following is noted: Thai patients with falciparum malaria; cited from earlier work.
The test system of data set [4] is OCT1. Details: method as in PMID 16263091. The settings on record: stably transfected HEK293 cells; read-out: IC50 of [3H]MPP+ uptake, OCT1; cited from earlier work.
Data set [5] has as its system OCT2. Details: method as in PMID 16263091. As to conditions: stably transfected HEK293 cells; read-out: IC50 of [3H]MPP+ uptake, OCT2; cited from earlier work.
For data set [6] the following is noted: adult patients with uncomplicated falciparum malaria; (geometric) mean or median; cited from earlier work.
The nature of data set [7]: Maximum plasma concentration from in vivo pharmacokinetic studies after therapeutic dosing. The settings on record: human, the literature Cmax (ng/mL) of Table 2 expressed in µM. The source says:
As Cmax the (geometric) mean or median maximum plasma concentrations obtained from previous in vivo pharmacokinetic studies after therapeutic dosing was used.

Regarding `C=C[C@H]1C[N@@]2CC[C@H]1C[C@H]2[C@H](O)c1ccnc2ccc(OC)cc12` [Quinine, quinine], the “Inhibition of OCT1” value in the data set on OCT1 [1] is reported as 60%. Further, the “Inhibition of OCT2” value in the data set on OCT2 [2] is given as 72%. The Unbound fraction in data set [3] was 0.11^g [36]. Also, the results for the IC50 in the data set with OCT1 [4] and in the data set on OCT2 [5] were 13 µM and 23 µM, respectively. In addition, the Cmax (in general, the highest concentration seen after dosing) in data set [6] was 11430^f [50] ng/mL; in data set [7], 35 µM.
